Laboratory results reported in patent publication US7592421B1, “HLA class II peptide mimics” (Health Research, Inc., priority 2003, dated 2009).
“Also recorded” adds a separate entry of the source.

How the values were obtained:
[1] = test system: mAb H2-27.F5.2G4 binding to HLA class II antigen on LG2 cells; test: Inhibition of binding of mAb H2-27.F5.2G4 to HLA class II bearing LG2 cells; design: species or system human; conditions: FIG. 1B; negative control peptide 673.74
Protocol: (§1) Peptide mimics of HLA class II antigen can be isolated by panning phage display peptide libraries with anti-HLA class II antigen mAbs. Anti-HLA class II antigen mAbs can be used to isolate phage that display antibody reactive peptides. After phage panning, the binding ability of isolated phage colonies to anti-HLA class II antigen mAbs is tested with immunoscreening and further confirmed by enzyme-linked immunosorbent assay (ELISA). Anti-HLA class II antigen antibody reactive phage clone and the same phage without displaying peptides, can be utilized as a positive and a negative controls respectively in the immunoscreening and ELISA. In the positive phage clones, the DNA inserts that encode the antibody reactive peptides can be sequenced. Peptides can be synthesized based on the sequences of the DNA inserts. The synthesized peptides are tested in ELISA to determine their binding reactivity with corresponding anti-HLA class II antigen mAbs. The ability of synthetic peptides to inhibit the binding of anti-HLA class II antigen mAbs to HLA class II antigen can be tested in an inhibition assay with HLA class II antigen-positive cell lines. The synthetic peptides that inhibit or block the binding of anti-HLA class II antigen mAbs to HLA class II antigen can be tested as active immunotherapy candidates. […]

[2] = test system: mAb LGII-612.14 binding to HLA class II antigens on LG2 cells; test: Inhibition of binding of mAb LGII-612.14 to HLA class II bearing LG2 cells; design: species or system human; conditions: FIG. 1C; negative control peptide 673.74
Protocol: as §1

[3] = test system: mAb TP117.6 binding to HLA class II antigens on LG2 cells; test: Inhibition of binding of mAb TP117.6 to HLA class II bearing LG2 cells; design: species or system human; conditions: FIG. 1D
Protocol: as §1

[4] = test system: mAb TP25.99, which recognizes HLA class I antigens; test: Inhibition of binding of control mAb TP25.99 (specificity control); conditions: FIG. 1E
Protocol: This Example illustrates the ability of the peptide mimics to bind to anti-HLA class II mAbs. The synthetic peptides were tested by ELISA for their ability to bind to anti-HLA class II mAb H2-27.F5.2G4, HT214.F2.H6.4F4, LGII612.14 and TP117.6. JH1 and JHT1 were also tested for their ability to inhibit the binding of anti-HLA class II mAb H2-27.F5.2G4 (FIG. 1B), HT214.F2.H6.4F4 (FIG. 1A), LGII612.14 (FIG. 1C) and TP117.6 (FIG. 1D) to HLA class II bearing cells LGL2 cells. H2-27.F5.2G4, LGII-612.14 and HT214.F2.H6.4F4 are monoclonal antibodies (mAb) that recognize HLA class II antigens. TP25.99 is a monoclonal antibody (mAb) which recognizes HLA class I antigens and is used in FIG. 1E as a control. LG2 is a human lymphoid cell line which expresses HLA class II antigens on its cell surface. P763.74 is a High Molecular Weight-Melanoma Associated Antigen (HMW-MAA) peptide mimic isolated using the anti-HMW-MAA mAb 763.74 and is used in FIGS. 1A-1C as a control peptide. The peptides were considered to be mimics of HLA class II antigens if they could inhibit the binding of any of the four anti-HLA class II mAb (H2-27, F5.2G4, HT214.F2.H6.4F4, LGII612.14 and TP117.6) to HLA class II bearing cells.

[5] = test system: anti-HLA class II mAb H2-27.F5.2G4; test: ELISA binding of synthetic peptide to mAb H2-27.F5.2G4; conditions: ELISA and inhibition assay
Protocol: as §1

[6] = test system: anti-HLA class II mAb LGII-612.14; test: ELISA binding of synthetic peptide to mAb LGII-612.14; conditions: ELISA and inhibition assay
Protocol: as §1

HLA class II antigens [7] = test: Immunization of BALB/c mice, serum reactivity with HLA class II antigens; format: in vivo; conditions: peptide conjugated to KLH with Freund's adjuvant, sera day 35, FIG. 2
Source text: (§2) HLA-DR transgenic mice express HLA-DR molecules. The promoter that is used to drive DR expression in the transgenic mice is H2 Ea promoter (pDOI-5 expression vector). This vector directs the expression of cDNA to cells which normally display class II molecules. HLA-DR transgenic mice were utilized as a model to test whether HLA class II peptide mimics can break tolerance to self-antigen. HLA-DR transgenic mice were immunized with peptide JH1 and JHT1 conjugated to keyhole limpet hemocyanin (KLH) and mixed with complete Freund's adjuvant for priming and with incomplete Freund's adjuvant for boosting. […] These experiments utilized LG2 cells as described in Example 2 and MOLT-4 cells. […] It was used as a control. Sera used for testing reactivity with HLA class II antigens was harvested on day 35 from BABL/c mice for FIGS. 2 and 4 and on day 70 from HLA-DR transgenic mice in FIG. 3. For FIGS. 2, 3 and 4, preimmune serum was harvested one week before the first immunization and was used as a control. […] One intradermal injection with HLA class II bearing LG2 cells enhanced the immune response to HLA class II antigens.

HLA class II antigens [8] = test: Immunization of HLA-DR transgenic mice, breaking of self-tolerance; format: in vivo; conditions: peptide conjugated to KLH with Freund's adjuvant, sera day 70, FIG. 3
Source text: as §2

[9] = test system: HLA class II antigens of LG2 lymphoid cells; test: Flow cytometry of immune sera with LG2 lymphoid cells; format: cell-based, human; conditions: sera of immunized BALB/c mice, day 35; FIG. 4A
Source text: as §2

MOLT-4 lymphoid cells = test: Flow cytometry of immune sera with control MOLT-4 lymphoid cells; format: cell-based, human; conditions: sera of immunized BALB/c mice, day 35; MOLT-4 does not express HLA class II; FIG. 4B
Source text: as §2

[10] = test system: immunizing peptides; HLA class II; test: Antibody titers in sera of immunized mice; format: in vivo; conditions: peptide-KLH, Freund's adjuvant; FIGS. 2-4
Source text: as §2

[11] = Side effects in immunized mice; format: in vivo; conditions: peptide-KLH, Freund's adjuvant
Source text: as §2

[12] = test system: mAb HT214.F2.H6.4F4 binding to HLA class II antigens on LG2 cells; test: Inhibition of binding of mAb HT214.F2.H6.4F4 to HLA class II bearing LG2 cells; design: species or system human; conditions: FIG. 1A; negative control peptide 673.74
Protocol: as §1

[13] = test system: anti-HLA class II mAb HT214.F2.H6.4F4; test: ELISA binding of synthetic peptide to mAb HT214.F2.H6.4F4; conditions: ELISA and inhibition assay
Protocol: as §1

Row | Sequence | inhibition of binding of mAb H2-27.F5.2G4 to HLA class II antigen on LG2 cells [1] | inhibition of binding of mAb LGII-612.14 to HLA class II antigens on LG2 cells [2] | inhibition of binding of mAb TP117.6 to HLA class II antigens on LG2 cells [3] | inhibition of binding of mAb TP25.99 (anti-HLA class I, control) [4] | reaction with the combining site of mAb H2-27.F5.2G4 [5] | reaction with the combining site of mAb LGII-612.14 [6] | humoral immune response against HLA class II antigens (HLA class II antigens [7]) | breaking self-tolerance, humoral immune response against HLA class II antigens (HLA class II antigens [8]) | reactivity of immune sera with HLA class II antigens of LG2 lymphoid cells (flow cytometry) [9] | reactivity of immune sera with control MOLT-4 lymphoid cells (flow cytometry) (MOLT-4 lymphoid cells) | anti-HLA class II antibodies in sera of immunized mice [10] | antibodies to the immunizing peptides in sera of immunized mice [10] | side effects in immunized mice [11] | inhibition of binding of mAb HT214.F2.H6.4F4 to HLA class II antigens on LG2 cells [12] | reaction with the combining site of mAb HT214.F2.H6.4F4 [13]
1 | SCLRAGGWVCCK (unknown synthesized peptide JH1) [HLA class II peptide mimic isolated by panning phage display libraries with mAb H2-27.F5.2G4 and LGII-612.14] | inhibits binding of mAb H2-27.F5.2G4 to HLA class II antigen on LG2 cells in a dose-dependant manner | inhibits binding of mAb LGII-612.14 to HLA class II antigens on LG2 cells in a dose-dependent manner | can inhibit binding | do not inhibit binding | reacted with the combining sites | reacted with the combining sites | elicits a humoral immune response against HLA class II antigens; also recorded: induced a humoral response against HLA class II antigens | can break self-tolerance and elicit a humoral immune response against HLA class II antigens | reactivity | lack of reactivity | detected in the sera of immunized mice at lower titers | high-titer antibodies to the immunizing peptides were detected | No obvious side effects | – | –
2 | KCPLDPKGLNCV (unknown synthesized peptide JHT1) [HLA class II peptide mimic isolated by panning with mAb HT214.F2.H6.4F4] | – | – | can inhibit binding | do not inhibit binding | – | – | elicits a humoral immune response against HLA class II antigens; also recorded: also induced a humoral response against HLA class II antigens | can break self-tolerance and elicit a humoral immune response against HLA class II antigens; also recorded: can also break self-tolerance | reactivity | lack of reactivity | detected in the sera of immunized mice at lower titers | high-titer antibodies to the immunizing peptides were detected | No obvious side effects | inhibits binding of mAb HT214.F2.H6.4F4 to HLA class II antigens to LG2 cells in a dose-dependent manner | reacted with the combining sites
